The target of one test is T1, BRAF V600E (Homo sapiens, UniProt P15056, V600E).
T1 construct: expressed in transfected cells
The experiment in a line: Cellular assay of target protein degradation, T-Rex 293 cells stably transfected with HA-BRAF_V600E (HA immunofluorescence, high content imaging). The class given is cell-based. Conditions: T-Rex 293 HA-BRAF V600E; for DC50: half maximal degradation, read-out: BRaf V600E DC50; for Dmax: maximum degradation observed. In a few lines: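 HA immunofluorescence on fixed cells, imaged by high-content reader, measured loss of HA-BRAF V600E in stably transfected T-Rex 293 cells induced with 1 ng/mL doxycycline. Compounds were applied for 24 h at 37 °C (final 0.1 nM–1 μM, 0.1% DMSO); DC50 and Dmax (% of control) were reported.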

The target of a further test is T2, BRAF G466V (Homo sapiens, UniProt P15056, G466V).
T2 construct: expressed in transfected cells
T2 sequence (P15056 whole entry G466V): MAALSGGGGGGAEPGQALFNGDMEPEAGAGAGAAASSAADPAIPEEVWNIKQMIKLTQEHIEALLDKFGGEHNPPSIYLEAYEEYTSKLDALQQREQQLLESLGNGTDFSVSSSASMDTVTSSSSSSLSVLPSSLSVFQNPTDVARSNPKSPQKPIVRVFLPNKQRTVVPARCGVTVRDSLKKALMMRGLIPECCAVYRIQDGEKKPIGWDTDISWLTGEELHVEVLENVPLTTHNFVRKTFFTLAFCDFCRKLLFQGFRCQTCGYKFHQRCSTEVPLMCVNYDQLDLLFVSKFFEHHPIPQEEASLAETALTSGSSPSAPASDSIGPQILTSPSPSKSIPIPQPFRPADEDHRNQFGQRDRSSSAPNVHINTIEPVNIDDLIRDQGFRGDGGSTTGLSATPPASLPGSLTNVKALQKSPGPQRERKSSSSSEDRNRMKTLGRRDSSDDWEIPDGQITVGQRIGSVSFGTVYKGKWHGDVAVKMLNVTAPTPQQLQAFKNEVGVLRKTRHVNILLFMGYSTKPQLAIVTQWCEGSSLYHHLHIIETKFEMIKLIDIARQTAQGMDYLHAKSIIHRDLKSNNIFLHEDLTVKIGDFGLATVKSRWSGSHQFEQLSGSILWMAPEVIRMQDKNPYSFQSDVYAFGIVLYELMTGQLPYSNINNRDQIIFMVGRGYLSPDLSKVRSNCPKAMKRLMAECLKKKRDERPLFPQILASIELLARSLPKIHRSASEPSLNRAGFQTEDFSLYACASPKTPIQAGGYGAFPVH
The experiment in a line: Cellular assay of target protein degradation, T-Rex 293 cells stably transfected with HA-BRAF G466V (HA immunofluorescence, high content imaging). It is filed as cell-based. Conditions: T-Rex 293 HA-BRAF G466V; for DC50: half maximal degradation, read-out: BRaf G466V DC50; for Dmax: maximum degradation observed. In a few lines: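 HA-BRAF G466V levels were read by HA immunofluorescence and high-content imaging after 24 h compound exposure (final 30 nM–3 pM, 0.1% DMSO, 37 °C). Expression was induced with 0.75 ng/mL doxycycline. Outputs: half-maximal degradation concentration (DC50) and maximal degradation (Dmax) relative to control.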

In general, DC50 refers to the concentration giving 50% degradation. For orientation: Dmax means the greatest extent of degradation seen.

Where only a bound is given, the exact number is not on record here.

T1 sequence (P15056 whole entry V600E): as the sequence (P15056 whole entry G466V) above, with V466G, V600E counted along it

Turning to `CN(CC(F)F)S(=O)(=O)Nc1ccc(F)c(C(=O)c2c[nH]c3ncc(-c4ccc(N5CCC(CN6CCC(c7ccc8c(c7)CN(C7CCC(=O)NC7=O)C8=O)CC6)CC5)cc4)cc23)c1F` (centres unmarked) [Compound 213, 3-(5-{1-[(1-{4-[3-(3-{[(2,2-difluoroethyl)(methyl)sulfamoyl]amino}-2,6-difluorobenzoyl)-1H-pyrrolo[2,3-b]pyridin-5-yl]phenyl}piperidin-4-yl)methyl]piperidin-4-yl}-1-oxo-2,3-dihydro-1H-isoindol-2-yl) piperidine-2,6-dione], on BRAF V600E, the DC50 fell in the range of 5 to 50 nM and the Dmax was in the range of 35 to 70%. Besides, on BRAF G466V, the DC50 lay within 1 to 10 nM and the Dmax was greater than 70%.

For the compound `O=C1CCC(N2Cc3cc(N4CCC(C5CCN(c6ccc(-c7cnc8[nH]cc(C(=O)c9c(F)ccc(NS(=O)(=O)N%10CC[C@@H](F)C%10)c9F)c8c7)cc6)CC5)CC4)ccc3C2=O)C(=O)N1` (stereo partly drawn) [Compound 214, (3R)-N-{3-[5-(4-{1′-[2-(2,6-dioxopiperidin-3-yl)-1-oxo-2,3-dihydro-1H-isoindol-5-yl]-[4,4′-bipiperidin]-1-yl}phenyl)-1H-pyrrolo[2,3-b]pyridine-3-carbonyl]-2,4-difluorophenyl}-3-fluoropyrrolidine-1-sulfonamide], the values for the DC50 on BRAF V600E and at BRAF G466V were 5 to 50 nM and 1 to 10 nM, respectively. For the same compound, the figures for the Dmax at BRAF V600E and on BRAF G466V were less than 35% and 35 to 70%, respectively.

Consider `O=C1CCC(N2Cc3cc(C4CCN(CC5CCN(c6cnc(-c7cnc8[nH]cc(C(=O)c9c(F)ccc(NS(=O)(=O)N%10CC[C@@H](F)C%10)c9F)c8c7)nc6)CC5)CC4)ccc3C2=O)C(=O)N1` (stereo partly drawn) [Compound 215, (3R)-N-[3-(5-{5-[4-({4-[2-(2,6-dioxopiperidin-3-yl)-1-oxo-2,3-dihydro-1H-isoindol-5-yl]piperidin-1-yl}methyl)piperidin-1-yl]pyrimidin-2-yl}-1H-pyrrolo[2,3-b]pyridine-3-carbonyl)-2,4-difluorophenyl]-3-fluoropyrrolidine-1-sulfonamide], for which the DC50 was in the range of 5 to 50 nM at BRAF V600E and 1 to 10 nM on BRAF G466V. Also, the Dmax on BRAF V600E is 35 to 70%; at BRAF G466V, greater than 70%.

`O=C1CCC(N2Cc3cc(C4CCN(CC[C@@H]5CCN(c6ccc(-c7cnc8[nH]cc(C(=O)c9c(F)ccc(NS(=O)(=O)N%10CC[C@@H](F)C%10)c9F)c8c7)cc6)C5)CC4)ccc3C2=O)C(=O)N1` (stereo partly drawn) [Compound 216, (3R)-N-[3-(5-{4-[(3R)-3-(2-{4-[2-(2,6-dioxopiperidin-3-yl)-1-oxo-2,3-dihydro-1H-isoindol-5-yl]piperidin-1-yl}ethyl)pyrrolidin-1-yl]phenyl}-1H-pyrrolo [2,3-b]pyridine-3-carbonyl)-2,4-difluorophenyl]-3-fluoropyrrolidine-1-sulfonamide]: at BRAF V600E, the DC50 fell in the range of 5 to 50 nM and the Dmax is less than 35%. At BRAF G466V, the DC50 was in the range of 1 to 10 nM and the Dmax was greater than 70%.

In the case of `O=C1CCC(N2Cc3cc(C4CCN(CC[C@H]5CCN(c6ccc(-c7cnc8[nH]cc(C(=O)c9c(F)ccc(NS(=O)(=O)N%10CC[C@@H](F)C%10)c9F)c8c7)cc6)C5)CC4)ccc3C2=O)C(=O)N1` (stereo partly drawn) [Compound 217, (3R)-N-[3-(5-{4-[(3S)-3-(2-{4-[2-(2,6-dioxopiperidin-3-yl)-1-oxo-2,3-dihydro-1H-isoindol-5-yl]piperidin-1-yl}ethyl)pyrrolidin-1-yl]phenyl}-1H-pyrrolo [2,3-b]pyridine-3-carbonyl)-2,4-difluorophenyl]-3-fluoropyrrolidine-1-sulfonamide], on BRAF V600E, the 50% degradation concentration (DC50) is 5 to 50 nM and the Dmax lay in the range of 35 to 70%. For the same compound, on BRAF G466V, the DC50 lay within 10 to 30 nM and the Dmax is greater than 70%.

The values are drawn from US12180193B2, “Accelerating fibrosarcoma protein degrading compounds and associated methods of use” (Arvinas Operations, Inc., priority 2020, dated 2024).
